Several values for one entry are separate records, joined by “and”; a condition that tells them apart may be missing. Identical values can stand only once.
Key:
individual B = experiment: Ergometer study c): Preparations I-IV with sulphonylureas and/or glucocorticoids, 5 minutes before test (Example 39); type: in vivo, human; conditions: 125 W for 45 min, ingested 5 min before test, chlorpropamide 20 mg, glibornuride 1 mg, glibenclamide 100 μg, dexamethasone 20 μg, prednisolone 200 μg, Prep. one dose unit
Experimental: (§1) Analogously to Example 37, the following studies a) to c) were carried out on two male individuals, trained for endurance cycling and kept on a permanently carbohydrate-rich diet; individual A (weighing 67 kg) having a maximum oxygen uptake capacity of 3.3 l and an oxygen transport volume per heart beat of 29 ml (corresponding to 0.6 kJ), and individual B (weighing 74 kg) having a maximum oxygen uptake capacity of 4.5 l and an oxygen transport volume per heart beat of 36 ml (corresponding to 0.75 kJ) . The following preparations were used, in which the indicated amounts correspond to one dose unit and which were obtained by dissolving or suspending the components in water and gelling the mixture:
(§2) Prep. I: 10 mg of D-glucose, 1 mg of thiamine and 10 mg of ascorbic acid heated with 5 mg of agar-agar in 1 ml of water;
(§3) Prep. II: 25 mg of ethanol, 1 mg of thiamine and 50 μg of biotin heated with 5 mg of agar-agar in 1 ml of water;
Prep. III: 25 mg of ethanol, 250 μg of folic acid and 5 μg of cyanocobalamin heated with 5 mg of gelatin in 1 ml of water;
Prep. IV: 10 mg of H-Gly-Gly-OH, 300 μg of folic acid and 5 μg of cyanocobalamin heated 5 mg of gelatin in 1 ml of water.
(§4) H-Gly-Gly-OH was bought from Novabiochem, Läufelfingen, Switzerland. Insulin was injected subcutaneously, while the other medicaments were ingested alone or together with one of Preparations I-IV.
c) In a further test series, the effect of Preparations I-IV was tested when applied in combination with sulphonylurea derivatives and/or glucocorticoids immediately before the physical exercise. In these tests, individual B was subjected to a workload of 125 W (60 r.p.m.) for 45 minutes; the drugs and Preparations were ingested 5 minutes before the test.

[1] = test system: male individuals A and B, trained for endurance cycling; experiment: Ergometer study a): insulin or sulphonylureas alone or with gelatin and/or Preparation I or II, 15 minutes before test (Example 39); type: in vivo, human
Experimental: as §1, §2, §3, §4
a) In a first study, insulin or antidiabetic sulphonylurea derivatives were applied, alone or in combination with gelatin and/or Preparation I or II, 15 minutes before the tests. In the tests, individual A was subjected to a workload of 100 W (60 r.p.m.) for 15 minutes (tests A1-A8), and individual B was subjected to a workload of 175 W (60 r.p.m.) for 10 minutes (tests B9-B29).

[2] = test system: male individuals A and B, trained for endurance cycling; experiment: Ergometer study b): sulphonylureas, glucocorticoids, Preparation I and combinations, evening before test (Example 39); type: in vivo, human; conditions: individual A, 100 W for 25 min, before sleep, glibenclamide 2.5 mg, glibornuride 25 mg
Experimental: as §1, §2, §4
b) In a second study, antidiabetic sulphonyl urea derivatives, glucocorticoids, Preparation I and combinations thereof were administered before sleep, the evening before the tests. In the tests, individual A was subjected to a workload of 100 W (60 r.p.m.) for 25 minutes (tests A1-A9), and individual B was subjected to a workload of 175 W (60 r.p.m.) for 45 minutes (tests B10-B33).

[3] = Stimulation of glycogen synthesis and anaerobic glucose breakdown in the muscle by other sugars (description); type: in vivo; conditions: even if taken together with vitamin B1 and vitamin C
From the text: D-Maltose can replace the D-glucose in the preparation according to the invention and is even active in considerably lower amounts. […] The conversion of the sucrose or fructose to glucose, however, only takes place in the liver if they have been absorbed from the small intestine.

[4] = individual B, 175 W for 10 min, 15 min before test, 5 I.U. insulin s.c., glibenclamide 2.5 mg alone or 100 μg with gelatin, chlorpropamide 10 mg, gelatin 5 mg, Prep. one dose unit
[5] = individual A, 100 W for 15 min, 2.5 mg glibenclamide 15 min before test

Molecule | Heat production (individual B) [kJ] | Mean heart rate (individual B) [per min.] | Oxygen consumption (individual B) [L] | Heat production [1, 4] | Mean heart rate [1, 4] | Oxygen consumption [1, 4] | Heat production [2] | Mean heart rate [2] | Oxygen consumption [2] | Stimulation of glycogen synthesis and of the anaerobic glucose breakdown in the muscle [3] | other results
CCCNC(=O)NS(=O)(=O)c1ccc(Cl)cc1 [chlorpropamide] | 2717 | 132.5 | 130 |  |  |  |  |  |  |  | 
insulin |  |  |  | 675 kJ and 696 kJ (2×) | 142.0 per min. and 144.8 per min. (2×) | 32 liter and 33 liter (2×) |  |  |  |  | Effect on heat production and oxygen consumption induced by constant physical work loads ([1]; applied 15 minutes before the test): increase
COc1ccc(Cl)cc1C(=O)NCCc1ccc(S(=O)(=O)NC(=O)NC2CCCCC2)cc1 [glibenclamide] | 2727 | 132.6 | 131 | 724 kJ and 698 kJ | 147.5 per min. and 145.1 per min. | 34 L | 622 kJ and 613 kJ and 531 kJ | 101.5 per min. and 100.9 per min. and 95.4 per min. | 30 liter (2×) and 26 liter |  | Heat production [1, 5]: 687 kJ and 700 kJ and 679 kJ; Mean heart rate [1, 5]: 136.4 per min. and 137.8 per min. and 135.4 per min.; Oxygen consumption [1, 5]: 33 liter (2×) and 34 liter
Cc1ccc(S(=O)(=O)NC(=O)N[C@H]2[C@H]3CC[C@@](C)([C@H]2O)C3(C)C)cc1 [glibornuride] | 2706 | 132.2 | 130 |  |  |  | 600 kJ | 100.0 per min. | 29 L |  | 
OC[C@H]1O[C@@](CO)(O[C@H]2O[C@H](CO)[C@@H](O)[C@H](O)[C@H]2O)[C@@H](O)[C@@H]1O [sucrose] |  |  |  |  |  |  |  |  |  | ineffective | 
O=C(CO)[C@@H](O)[C@H](O)[C@H](O)CO [fructose] |  |  |  |  |  |  |  |  |  | ineffective | 
